# Biological target: Kappa-type opioid receptor (Homo sapiens, UniProt P41145)
# Assay: Agonist activity at human kappa opioid receptor expressed in CHO cells assessed as beta-arrestin2 recruitment by enzyme fragment complementation method
# Format: cell-based
# Chain of Kappa-type opioid receptor (P41145 whole entry, the tested form may be a part): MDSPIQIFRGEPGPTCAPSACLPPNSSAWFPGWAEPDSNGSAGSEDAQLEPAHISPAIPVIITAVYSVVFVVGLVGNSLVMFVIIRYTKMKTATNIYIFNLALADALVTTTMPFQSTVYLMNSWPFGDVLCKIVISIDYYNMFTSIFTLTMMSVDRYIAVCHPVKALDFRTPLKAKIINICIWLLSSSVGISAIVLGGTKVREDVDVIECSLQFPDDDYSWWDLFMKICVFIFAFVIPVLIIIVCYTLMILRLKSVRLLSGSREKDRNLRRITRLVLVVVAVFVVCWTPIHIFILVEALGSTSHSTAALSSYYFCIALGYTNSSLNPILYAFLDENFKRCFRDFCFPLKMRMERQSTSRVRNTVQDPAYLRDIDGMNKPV
row,SMILES,EC50
1,CN(CCc1ccc(Cl)c(Cl)c1)[C@@H]1CCCC[C@H]1N1CCCC1,0.0566 µM
2,Cc1cc(CSc2nnc(-c3ccccn3)n2Cc2ccco2)ccc1C(F)(F)F,4.13 µM
3,O=C(Nc1ccc(Cl)c(C(F)(F)F)c1)[C@H]1CC=C[C@H]2CCN(Cc3ccccc3)C(=O)[C@@H]12,> 10 µM

# Source: ChEMBL document CHEMBL4033764, “Seeking (and Finding) Biased Ligands of the Kappa Opioid Receptor” (ACS Med Chem Lett, 2017)
